Measured values taken from US8685992B2, “Histone deacetylase inhibitors based simultaneously on trisubstituted 1H-pyrroles and aromatic and heteroaromatic spacers” (Universidad del País Vasco, priority 2009, dated 2014).

Assays:
[1] = test system: HepG2; assay: Cancer cell growth inhibition, HepG2; type: cell-based, human; conditions: HepG2, Liver Cancer, 72 h treatment
Description: (§1) Cell culture-based assays were used to evaluate the ability of compounds of the invention to inhibit cancer cell growth inhibition.
(§2) Cells were obtained from the American Type Culture Collection (ATCC). Cells were cultured at 37° C. with 5% CO2 in the appropriate growth medium (see table below), and harvested respectively during the logarithmic growth period and counted with hemocytometer. The cell viability was over 98% by trypan blue exclusion. Cell concentrations were adjusted between 5×10^4 and 2×10^5 cells/ml with respective medium.
(§3) Stock solutions of test compounds and positive drugs Doxorubicin (Zhejiang, Haizheng, China), Paclitaxel (Beijing, Xiehe, China), Vincristin (Shenzhen Wanle, China), 5-FU (Tianjin jinyaoanjisuan, China), Irinotecan (Jiangsu Hengrui, China) and Cisplatin Nanjing zhiyao, China) were prepared in dimethyl sulphoxide (DMSO) or PBS at 20 mM.
(§4) All treatments were performed in triplicate. 10 μl drug solution was added to each well and incubated for 72 hours. At the end of the incubation, 20 μl of the freshly prepared MTS/PMS mixture solution was added to each well and incubated for 4 hours at 37° C. in a humidified, 5% CO2 atmosphere. Absorbance was read at 490 nm using SpectraMAX Plus microplate spectrophotometer. […] In order to calculate IC50, a dose-responsive curve was fitted using nonlinear regression model with a sigmoidal dose response.

[2] = test system: MIAPACA-2; assay: Cancer cell growth inhibition, MIAPACA-2; type: cell-based, human; conditions: MIAPACA-2, Pancreatic Cancer, 72 h treatment
Description: as §1, §2, §3, §4

[3] = test system: HCT-116; assay: Cancer cell growth inhibition, HCT-116; type: cell-based, human; conditions: HCT-116, Colorectal Cancer, 72 h treatment
Description: as §1, §2, §3, §4

[4] = target: Human HDAC8 (Homo sapiens (Human), UniProt Q9BY41); assay: HDAC8 fluorogenic peptide deacetylation assay; type: biochemical; conditions: human HDAC8, 50 μM substrate, 30° C., 2 h; read-out: IC50 (nM) of enzyme activity HDAC8
[5] = target: Human HDAC6 (Homo sapiens (Human), UniProt Q9UBN7); assay: HDAC6 fluorogenic peptide deacetylation assay; type: biochemical; conditions: human HDAC6, 50 μM substrate, 30° C., 2 h; read-out: IC50 (nM) of enzyme activity HDAC6
[6] = target: Human HDAC2 (Homo sapiens (Human), UniProt Q92769); assay: HDAC2 fluorogenic peptide deacetylation assay; type: biochemical; conditions: human HDAC2, 50 μM substrate, 30° C., 2 h; read-out: IC50 (nM) of enzyme activity HDAC2
[7] = target: Human HDAC3/NcoR2 (Homo sapiens (Human), UniProt O15379); assay: HDAC3 fluorogenic peptide deacetylation assay; type: biochemical; conditions: human HDAC3/NcoR2, 50 μM substrate, 30° C., 2 h; read-out: IC50 (nM) of enzyme activity HDAC3
[8] = target: Human HDAC1 (Homo sapiens (Human), UniProt Q13547); assay: HDAC1 fluorogenic peptide deacetylation assay; type: biochemical; conditions: human HDAC1, 50 μM substrate, 30° C., 2 h; read-out: IC50 (nM) of enzyme activity HDAC1
[9] = test system: Nuclear Extract from HeLa Cells; assay: HeLa Nuclear Extract HDAC assay; type: biochemical, human; conditions: 50 μM substrate, 30° C., 2 h, read-out: IC50 (nM) of enzyme activity HeLa
[10] = target: histone deacetylase from rat liver; assay: Rat liver HDAC assay; type: biochemical; conditions: Boc-Lys(Ac)-AMC substrate, 30° C., 2 h, read-out: IC50 (nM) of enzyme activity Rat liver
[11] = test system: MCF-7-218; assay: Cancer cell growth inhibition, MCF-7-218; type: cell-based; conditions: Homo sapiens; MCF-7-218, Breast Cancer, 72 h treatment
Description: as §1, §2, §3, §4

[12] = test system: SK-HEP-1; assay: Cancer cell growth inhibition, SK-HEP-1; type: cell-based; conditions: Homo sapiens, SK-HEP1; SK-HEP-1, Liver Cancer, 72 h treatment
Description: as §1, §2, §3, §4

[13] = test system: 143b; assay: Cancer cell growth inhibition, 143b; type: cell-based; conditions: Homo sapiens, Osteosarcoma, 72 h treatment
Description: as §1, §2, §3, §4

[14] = test system: BT474; assay: Cancer cell growth inhibition, BT474; type: cell-based; conditions: Homo sapiens, BT-474; BT474, Breast Cancer, 72 h treatment
Description: as §1, §2, §3, §4

[15] = test system: MCF-7-FL; assay: Cancer cell growth inhibition, MCF-7-FL; type: cell-based; conditions: Homo sapiens, Breast Cancer, 72 h treatment
Description: as §1, §2, §3, §4

[16] = test system: HT-1080; assay: Cancer cell growth inhibition, HT-1080; type: cell-based; conditions: Homo sapiens; HT-1080, Fibrosarcoma, 72 h treatment
Description: as §1, §2, §3, §4

[17] = test system: Colo205; assay: Cancer cell growth inhibition, Colo205; type: cell-based; conditions: Homo sapiens, COLO 205; Colo205, Colorectal Cancer, 72 h treatment
Description: as §1, §2, §3, §4

Human HDAC6, sequence (Q9UBN7 whole entry): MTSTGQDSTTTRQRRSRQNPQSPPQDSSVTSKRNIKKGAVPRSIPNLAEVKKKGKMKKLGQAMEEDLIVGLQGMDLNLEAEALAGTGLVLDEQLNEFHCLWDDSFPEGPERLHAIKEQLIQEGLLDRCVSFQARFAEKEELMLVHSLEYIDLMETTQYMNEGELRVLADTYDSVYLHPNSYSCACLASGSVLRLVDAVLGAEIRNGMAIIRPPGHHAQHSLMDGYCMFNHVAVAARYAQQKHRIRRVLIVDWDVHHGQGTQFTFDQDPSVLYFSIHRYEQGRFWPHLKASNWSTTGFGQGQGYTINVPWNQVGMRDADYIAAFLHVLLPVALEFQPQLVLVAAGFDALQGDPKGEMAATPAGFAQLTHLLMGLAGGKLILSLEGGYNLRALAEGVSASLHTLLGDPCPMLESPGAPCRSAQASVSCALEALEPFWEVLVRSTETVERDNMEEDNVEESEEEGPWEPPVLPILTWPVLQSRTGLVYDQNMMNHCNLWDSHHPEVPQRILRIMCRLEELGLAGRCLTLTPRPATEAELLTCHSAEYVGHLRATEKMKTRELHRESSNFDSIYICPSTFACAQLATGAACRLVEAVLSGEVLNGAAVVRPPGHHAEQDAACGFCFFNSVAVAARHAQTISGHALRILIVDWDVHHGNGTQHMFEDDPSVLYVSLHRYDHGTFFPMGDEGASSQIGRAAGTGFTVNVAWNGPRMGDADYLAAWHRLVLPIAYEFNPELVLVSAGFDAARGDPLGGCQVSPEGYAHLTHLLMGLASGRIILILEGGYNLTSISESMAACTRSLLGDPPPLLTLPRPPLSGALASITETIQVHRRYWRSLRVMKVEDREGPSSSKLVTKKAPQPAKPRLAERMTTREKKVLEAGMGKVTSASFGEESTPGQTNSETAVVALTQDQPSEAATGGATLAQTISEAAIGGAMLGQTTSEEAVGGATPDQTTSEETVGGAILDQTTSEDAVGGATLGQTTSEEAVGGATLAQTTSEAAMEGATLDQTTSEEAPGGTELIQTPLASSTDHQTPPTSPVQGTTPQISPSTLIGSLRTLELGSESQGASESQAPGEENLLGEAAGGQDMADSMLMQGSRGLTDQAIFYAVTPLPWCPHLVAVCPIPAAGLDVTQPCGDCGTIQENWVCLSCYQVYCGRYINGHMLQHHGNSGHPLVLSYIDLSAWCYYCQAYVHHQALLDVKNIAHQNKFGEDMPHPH
Human HDAC8, sequence (Q9BY41 whole entry): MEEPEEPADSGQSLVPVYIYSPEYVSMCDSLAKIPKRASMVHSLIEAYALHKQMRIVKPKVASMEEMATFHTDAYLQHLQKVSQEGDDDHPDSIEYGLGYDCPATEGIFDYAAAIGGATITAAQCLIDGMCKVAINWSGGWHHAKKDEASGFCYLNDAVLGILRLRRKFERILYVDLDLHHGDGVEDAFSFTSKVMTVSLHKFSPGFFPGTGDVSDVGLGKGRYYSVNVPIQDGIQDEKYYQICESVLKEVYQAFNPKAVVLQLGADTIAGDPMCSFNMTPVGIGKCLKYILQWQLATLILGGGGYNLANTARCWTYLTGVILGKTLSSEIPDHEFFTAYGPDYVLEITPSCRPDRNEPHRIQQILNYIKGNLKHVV
Human HDAC3/NcoR2, sequence (O15379 whole entry): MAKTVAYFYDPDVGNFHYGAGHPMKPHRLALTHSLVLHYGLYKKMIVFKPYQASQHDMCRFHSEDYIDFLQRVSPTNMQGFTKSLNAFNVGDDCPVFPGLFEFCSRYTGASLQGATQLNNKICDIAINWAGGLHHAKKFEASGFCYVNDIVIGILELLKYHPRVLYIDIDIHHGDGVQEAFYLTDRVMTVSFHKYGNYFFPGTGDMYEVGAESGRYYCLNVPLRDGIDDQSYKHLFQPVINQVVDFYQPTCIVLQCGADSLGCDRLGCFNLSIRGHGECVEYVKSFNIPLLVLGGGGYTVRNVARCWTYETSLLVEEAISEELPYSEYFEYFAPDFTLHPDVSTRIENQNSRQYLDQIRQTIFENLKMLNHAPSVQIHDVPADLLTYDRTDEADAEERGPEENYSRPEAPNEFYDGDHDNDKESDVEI
Human HDAC3/NcoR2, sequence (Q9Y618 395-489 partner): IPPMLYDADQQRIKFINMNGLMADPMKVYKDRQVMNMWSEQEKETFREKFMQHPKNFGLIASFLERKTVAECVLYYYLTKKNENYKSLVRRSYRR
Human HDAC1, sequence (Q13547 whole entry): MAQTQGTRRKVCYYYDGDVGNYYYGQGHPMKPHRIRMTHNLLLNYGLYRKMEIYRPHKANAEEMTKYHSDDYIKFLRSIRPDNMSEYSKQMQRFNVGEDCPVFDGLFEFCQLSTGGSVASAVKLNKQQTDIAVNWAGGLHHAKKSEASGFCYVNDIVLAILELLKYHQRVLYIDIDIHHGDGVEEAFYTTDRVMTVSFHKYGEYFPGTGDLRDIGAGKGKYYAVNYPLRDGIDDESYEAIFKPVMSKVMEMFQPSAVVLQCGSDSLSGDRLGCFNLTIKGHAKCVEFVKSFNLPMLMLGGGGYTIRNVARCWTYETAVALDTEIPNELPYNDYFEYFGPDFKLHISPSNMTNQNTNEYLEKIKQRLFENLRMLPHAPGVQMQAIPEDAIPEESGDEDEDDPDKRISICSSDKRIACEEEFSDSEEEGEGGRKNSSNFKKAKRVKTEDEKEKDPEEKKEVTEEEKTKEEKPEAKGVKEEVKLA
Human HDAC2, sequence (Q92769 whole entry): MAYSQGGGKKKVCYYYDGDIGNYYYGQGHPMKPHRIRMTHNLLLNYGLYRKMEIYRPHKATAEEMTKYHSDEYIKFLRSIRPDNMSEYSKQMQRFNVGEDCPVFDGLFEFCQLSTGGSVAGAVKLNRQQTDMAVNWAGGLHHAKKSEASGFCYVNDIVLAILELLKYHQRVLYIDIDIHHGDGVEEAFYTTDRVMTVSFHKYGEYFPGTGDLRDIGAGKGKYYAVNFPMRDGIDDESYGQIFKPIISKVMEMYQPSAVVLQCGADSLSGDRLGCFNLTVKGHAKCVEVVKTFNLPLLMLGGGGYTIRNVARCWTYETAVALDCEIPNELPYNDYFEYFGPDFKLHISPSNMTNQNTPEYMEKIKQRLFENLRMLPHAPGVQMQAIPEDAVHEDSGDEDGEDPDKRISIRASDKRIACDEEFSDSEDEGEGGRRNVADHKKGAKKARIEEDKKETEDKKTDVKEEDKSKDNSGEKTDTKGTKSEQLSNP

SMILES | IC50 [4] | IC50 [5] | IC50 [6] | IC50 [7] | IC50 [8] | IC50 [9] | IC50 [10] | melting point | other results
O=c1[nH]cc(F)c(=O)[nH]1 [Example 5-FU, 5-FU, reference compound] |  |  |  |  |  |  |  |  | IC50 [1]: 3.28 µM; IC50 [2]: 7.61 µM; IC50 [3]: 1.71 µM
O=C(NO)c1ccc(CNC(=O)c2[nH]c(-c3ccccc3)cc2-c2ccc(O)cc2)cc1 [Example 10, N-{4-[(hydroxyamino)carbonyl]benzyl}-3-(4-hydroxyphenyl)-5-phenyl-1H-pyrrole-2-carboxamide] | 340 nM | 10.8 nM | 1390 nM | 512 nM | 473 nM | 34 nM | 66 nM | 139 to 141 °C | 
CC(=O)O[C@H]1C(=O)[C@@]2(C)[C@H]([C@H](OC(=O)c3ccccc3)[C@]3(O)C[C@H](OC(=O)[C@H](O)[C@@H](NC(=O)c4ccccc4)c4ccccc4)C(C)=C1C3(C)C)[C@]1(OC(C)=O)CO[C@@H]1C[C@@H]2O [Paclitaxel, reference compound] |  |  |  |  |  |  |  |  | IC50 [11]: 0.285 µM
COc1cccc2c1C(=O)c1c(O)c3c(c(O)c1C2=O)C[C@@](O)(C(=O)CO)C[C@@H]3O[C@H]1C[C@H](N)[C@H](O)[C@H](C)O1 [Doxorubicin, reference compound] |  |  |  |  |  |  |  |  | IC50 [12]: 0.165 µM; IC50 [13]: 0.0861 µM; IC50 [14]: 4.5 µM; IC50 [15]: 2.37 µM; IC50 [16]: 0.0256 µM
CCc1c2c(nc3ccc(OC(=O)N4CCC(N5CCCCC5)CC4)cc13)-c1cc3c(c(=O)n1C2)COC(=O)[C@]3(O)CC [Irinotecan, reference compound] |  |  |  |  |  |  |  |  | IC50 [17]: 16.6 µM
COc1ccc(-c2cc(-c3ccccc3)[nH]c2C(=O)NCc2ccc(C(=O)Nc3ccccn3)cc2)cc1 [Example 25, 3-(4-methoxyphenyl)-5-phenyl-N-{4-[(pyridin-2-ylamino)carbonyl]benzyl}-1H-pyrrole-2-carboxamide] | > 5000 nM | > 5000 nM | > 5000 nM | > 5000 nM | > 5000 nM | > 5000 nM |  | 196 °C (dec.) | 
COc1ccc(-c2cc(-c3ccccc3)[nH]c2C(=O)NCc2ccc(C(=O)Nc3ccccc3S)cc2)cc1 [Example 22, 3-(4-methoxyphenyl)-5-phenyl-N-(4-{[(2-sulfanylphenyl)amino]carbonyl}benzyl)-1H-pyrrole-2-carboxamide] | > 5000 nM | > 5000 nM | > 5000 nM | > 5000 nM | > 5000 nM | > 5000 nM | > 10000 nM | 134 to 135 °C | 

Continued, in another order:

IC50 [4] | IC50 [5] | IC50 [6] | IC50 [7] | IC50 [8] | IC50 [9] | IC50 [10] | melting point | SMILES | other results
> 5000 nM | > 5000 nM | 1260 nM | 3900 nM | 390 nM | 7010 nM | > 10000 nM | 142 to 143 °C (dec.) | COc1ccc(-c2cc(-c3ccccc3)[nH]c2C(=O)NCc2ccc(C(=O)Nc3ccccc3N)cc2)cc1 [Example 21, N-(4-{[(2-aminophenyl)amino]carbonyl}benzyl)-3-(4-methoxyphenyl)-5-phenyl-1H-pyrrole-2-carboxamide] | 
124 nM | 42.8 nM | 1150 nM | 451 nM | 384 nM | 46.4 nM | 56 nM | 162 to 164 °C | O=C(NO)c1ccc(CNC(=O)c2[nH]c(-c3ccoc3)cc2-c2ccc(F)cc2)cc1 [Example 12, 3-(4-fluorophenyl)-5-(3-furyl)-N-{4-[(hydroxyamino)carbonyl]benzyl}-1H-pyrrole-2-carboxamide] | 
